{"source": "patent US12298308B2", "about": "“Neoadjuvant chemotherapy induces breast cancer metastasis through a TMEM-mediated mechanism” (Albert Einstein College of Medicine, priority 2017, dated 2025)", "key": {"Mena": {"tested_on": "Mena", "assay": "Mena isoform gene expression by qRT-PCR on FFPE tumors", "format": "in vivo, mouse", "text": "To test this hypothesis, qRT-PCR analysis was first performed for total Mena (panMena), Mena11a and Mena^INV on formalin-fixed paraffin-embedded (FFPE) tumors from all mouse models. […] As shown in the specific Mena^INV IF, the pattern of Mena^INV expression in PyMT mice was heterogeneous (FIG. 4F), consistent with previous observations (40). […] In addition, there was an inverse correlation for the anti-metastatic Mena11a (p<0.01, […]).\nGene Expression Analysis. Total RNA was extracted from formalin-fixed paraffin-embedded (FFPE) tissues using deparaffinization solution (Qiagen) and RNeasy FFPE Kit (Qiagen), followed by DNase treatment. An RT-PCR method SYBR Green (Qiagen) was used to measure expression levels of total Mena (PanMena), as well as of the specific Mena isoforms, Mena11a and Mena^INV, as described (29), with slight modifications, as detailed in Supplementary Methods. Mena^Calc expression has been previously defined as the expression level of all Mena isoforms combined after subtraction of Mena 11a from PanMena (2)."}, "circulating tumor cells": {"tested_on": "circulating tumor cells", "assay": "Circulating tumor cells per mL of blood", "format": "in vivo, mouse", "experimental": "(§1) Drug Administration. The following drugs were administered in mice: Paclitaxel was given at 10 mg/Kg i.v every 5 days for 2 weeks; Doxorubicin was given at 5 mg/Kg i.v. every 5 days for 2 weeks; Cyclophosphamide was given at 120 mg/Kg i.p. only once; Rebastinib was given at 10 mg/Kg per os, every 3-4 days for 4 weeks.\nCirculating Tumor Cells. Mice were anesthetized with 3.5-4.5% isoflurane, and blood was taken from the right ventricle by heart puncture, using 25G needles coated with heparin. Erythrocytes were lysed, using 10 ml of 1×RBC lysis buffer (multi-species, eBioscience). Cancer cells were quantified, as previously described (31, 60)."}, "TMEM": {"tested_on": "TMEM", "assay": "Intravital imaging of TMEM-dependent vascular permeability (bursting)", "format": "in vivo, mouse", "text": "Paclitaxel Induces TMEM-Dependent Vascular Permeability in Breast Tumors—Given that chemotherapy treatment may affect blood vessel dynamics by inducing angiogenesis (9, 11-13, 35-37), intravital imaging (IVI) (FIG. 2A) was used to investigate whether neoadjuvant paclitaxel induces TMEM-dependent (localized) or TMEM-independent (more universal) blood vessel leakage. […] As also reported previously (1), we never observed any bursting incidents without juxtaposition to a clearly defined TMEM site. Bursting was documented by the accumulation of Dextran-TMR signal over time around an active TMEM site, and no such accumulation was observed away from TMEM (FIGS. 2B-C). The entire time-lapse of these was recorded in videos, respectively. The intensity values from all TMEM-mediated bursting incidents observed in paclitaxel-treated mice were averaged and plotted over the entire time of bursting activity (FIG. 2D), which confirmed the transient nature of paclitaxel-induced TMEM-dependent vascular permeability.\nas §1\nIntravital Imaging. Intravital imaging was performed using a custom-built two-laser multiphoton microscope, as previously described (57). Mice were anesthetized using 0.75-2.5% isofluorane, depilated. A skin flap procedure, previously developed (58), was performed by exposing the 4th or 5th mammary fat pad. Given the early stage of carcinoma and small tumor size, this necessitated the development of a custom fixturing technique where the exposed tissue was stabilized by affixing the edge of a 10-mm window fitted with an 8-mm clear aperture respectively with cyanoacrylate. The mouse was then placed on a fixturing plate, fitted to the respective window, on the microscope xy stage and imaging was performed in the center of the window away from the glue. The animal was placed in a heated chamber, AirTherm ATX forced air heater (WPI Inc.), maintained at physiologic temperature during the course of imaging, and supplemented with 50-100 uL of PBS per hour via the tail vein catheter. As previously described (1), three milligrams of 155-kDa TMR-dextran (Sigma) were administered via the catheter to visualize the vasculature. All images were reconstructed and analyzed in ImageJ (59), as described in Supplementary Methods."}, "breast cancer": {"tested_on": "breast cancer", "settings": "addition of paclitaxel into preoperative NAC regimen; cited from earlier work"}, "MDA-MB-213 xenografts": {"tested_on": "MDA-MB-213 xenografts", "settings": "paclitaxel-treated vs control MDA-MB-213 xenografts; cited from earlier work"}}}
{"molecule": "CC(=O)O[C@H]1C(=O)[C@@]2(C)[C@H]([C@H](OC(=O)c3ccccc3)[C@]3(O)C[C@H](OC(=O)[C@H](O)[C@@H](NC(=O)c4ccccc4)c4ccccc4)C(C)=C1C3(C)C)[C@]1(OC(C)=O)CO[C@@H]1C[C@@H]2O", "note": "[paclitaxel]", "values": [{"measurement": "expression of Mena11a", "setting": "Mena", "result": "not that of the anti-metastatic Mena11a"}, {"measurement": "expression of Mena^Calc", "setting": "Mena; p<0.01", "result": "significantly increased"}, {"measurement": "expression of Mena^INV", "setting": "Mena; p<0.01", "result": "significantly increased"}, {"measurement": "expression of PanMena", "setting": "Mena; p<0.01", "result": "significantly increased"}, {"measurement": "number of CTCs in the blood", "setting": "circulating tumor cells; Mena^-/- PyMT-CFP transplants", "result": "failed to boost"}, {"measurement": "increase in circulating tumor cells (CTCs)", "setting": "circulating tumor cells; all experimental models examined, p<0.05", "result": "at least 2 fold"}, {"measurement": "number of CTCs (TMEM activity)", "setting": "circulating tumor cells; single agent vs vehicle, PyMT-transplantation and HT17 xenograft", "result": "significant increases"}, {"measurement": "generalized blood vessel leakage of 155-KDa dextran into the extravascular space", "setting": "TMEM; intravital imaging, paclitaxel-treated mice", "result": "did not demonstrate generalized blood vessel leakage"}, {"measurement": "frequency of bursting", "setting": "TMEM; vs vehicle control", "result": "increased"}, {"measurement": "incidence of bursting (at least 1 bursting event in a ~4.5-hour imaging session)", "setting": "TMEM; vs vehicle control", "result": "increased"}, {"measurement": "overall survival", "setting": "breast cancer", "result": "does not improve"}, {"measurement": "rate of pathologic complete response (pCR)", "setting": "breast cancer", "result": "significantly increases"}, {"measurement": "Mena expression", "setting": "MDA-MB-213 xenografts", "result": "significantly increased"}, {"measurement": "Mena^INV expression", "setting": "MDA-MB-213 xenografts", "result": "significantly increased"}]}
